According to patent US20260355199A1, “COMPOSITIONS AND METHODS FOR TREATING OR PREVENTING NONALCOHOLIC STEATOHEPATITIS (NASH), ANOREXIA, DEPRESSION, ENDOMETRIOSIS, AND OTHER DISEASES OR DISORDERS” (priority 2022, published 2026):
“Also recorded” adds a separate entry of the source.

Columns and labels:
hM4Di = assay: Chemogenetic inhibition of AgRP neurons with C21; assay type: in vivo, mouse; conditions: C21 0.5 mg/kg by osmotic pump, TET3 knockdown mice
Text: To determine the relevance of activated AgRP neurons from TET3 knockdown, the chemogenetic tool of designer receptors exclusively activated by designer drugs (DREADDs) was used. AAV-sgTet3 was co-injected with an AAV containing a Cre-dependent hM4Di-mCherry transgene (AAV-hM4Di) (Krashes, M. J. et al., 2011, Journal of Clinical Investigations, 121:1424-1428) bilaterally into the ARC of Cas9+ mice, followed by implantation of an osmotic pump to infuse DREADD agonist 21 (C21) (Thompson, K. J. et al., 2018, ACS Pharmacology & Translational Science, 1:61-72) or saline (FIG. 9K). AgRP neuron-specific expression of hM4Di was confirmed by immunofluorescence (FIG. 11).
Three days after bilateral ARC co-injection with AAV-sgTet3 and AAV-h4MDi, a mini-osmotic pump (model 1007D, Alzet) was implanted subcutaneously. The osmotic pump was filled with either sterile saline solution or DREADD agonist compound 21 (C21) dihydrochloride (0.5 mg/kg, HB6124-25 mg, Hello Bio). Food intake measurement and ITT were performed at day 5 and day 9 post-injection, respectively. For food intake assays, food pellets were weighed at 10:00 each day for 3 continuous days and an average of three-day food intake was calculated.

TET3 and CD163 [1] = assay: TET3 expression in mouse peritoneal macrophages; assay type: cell-based; conditions: wild-type mouse peritoneal macrophages
Procedure: Peritoneal macrophages were collected from the peritoneal cavity of WT or Mye-Tet3 ko mice by injecting 10 mL of PBS followed by gentle abdominal massaging for 5 min. Cells were pelleted by centrifugation at 1500×g at 4 °C for 8 min. To remove red blood cells, cells were resuspended in […] (Biolegend, 420302, diluted to 1×) and allowed to stand for 5 min, followed by addition of PBS to stop the reaction and twice wash with PBS by centrifugation. Macrophages were enriched by plating cells in RPMI 1640 supplemented with 10% FBS and 1% Anti-Anti for 2 h at 37 °C in a 5% humidified CO2 tissue culture incubator. Non-adherent cells were then removed with three PBS washes.
After wash in cold PBS, adherent cells were fixed with 4% paraformaldehyde in PBS for 15 min and permeabilized with 0.4% TritonX-100 for 15 min. Cells were blocked in 5% donkey serum/PBS-T at RT for 30 min and quickly washed once with PBS-T before antibody incubation. […] Cells were covered with antifade mounting medium with DAPI (Vector laboratories, H-2000), scoped using a Keyence BZ-X700 fluorescence microscope.

TET3 and CD163 [2] = assay: TET3 expression and TET3/CD163 double-positive cells in human MDMs; assay type: cell-based; conditions: for TET3 expression: TGF-β1 10 ng/ml or MCP1 200 ng/ml; for number of TET3/CD163 double-positive cells: TGF-β1 10 ng/ml, 48 h
Procedure: To prepare CM-HSC and CM-Endo, LX-2 and human endometriosis cells were seeded in 24-well plates (2.5×10^5 cells/well) with their respective growth media and allowed to grow to ~50% confluency. Cells were then washed with PBS and incubated with fresh growth media (500 μl/well) for an additional 24 h. Cell supernatant (CM-HSC/CM-Endo) was collected and immediately used to treat MDMs after 1:1 dilution with their respective growth media. In the control group, only respective growth media were used.
After wash in cold PBS, adherent cells were fixed with 4% paraformaldehyde in PBS for 15 min and permeabilized with 0.4% TritonX-100 for 15 min. Cells were blocked in 5% donkey serum/PBS-T at RT for 30 min and quickly washed once with PBS-T before antibody incubation. Primary antibodies were diluted in 2% donkey serum/PBS-T. For CD163/TET3 double staining, cells were incubated with anti-TET3 (GeneTex, GTX121453, diluted at 1:400 for MDMs; Millipore Sigma, ABE290, diluted at 1:500 for mouse peritoneal macrophages) and anti-CD163 (Abcam, ab156769, diluted at 1:400 for MDMs; Santa Cruz Biotechnology, sc-58965, diluted at 1:200 for peritoneal macrophages) overnight at 4 °C. The next day, cells were washed 3 times with PBS-T and incubated in 0.4% Triton X-100/PBS with donkey anti-Rabbit IgG Fluor 594 (Invitrogen, A-21207, diluted at 1:500) and goat anti-Mouse lgG Fluor 488 (Invitrogen, A-11029, diluted at 1:500) for 1 h at RT. Cells were covered with antifade mounting medium with DAPI (Vector laboratories, H-2000), scoped using a Keyence BZ-X700 fluorescence microscope.
Total RNAs were extracted from cells using PureLink RNA Mini Kit. 0.5-1 μg total RNA was reverse transcribed to cDNA in a reaction volume of 20 μL using PrimeScript RT Reagent Kit. Real-time quantitative PCR was performed in a 15 μL reaction volume containing 0.5-1 μL of cDNA using SsoAdvanced Universal SYBR Green Supermix in a Bio-Rad iCycler. Gene expression levels were normalized against RPLP0.

estrogen receptor = conditions: cited from earlier work
IL-1β = conditions: phase III clinical trial; cited from earlier work
IL-6 receptor = conditions: rats; cited from earlier work

Cl.Cl.c1ccc2c(c1)N=C(N1CCNCC1)c1ccccc1N2 [C21]
hyperphagia (hM4Di): suppressed hyperphagia
systemic insulin resistance (hM4Di): reversed systemic insulin resistance

TGF-β1: purified TGF-β1 (PeproTech, 100-21)
TET3 expression and TET3/CD163 double-positive cells (TET3 and CD163 [1]): increase TET3 expression and TET3/CD163 double-positive cells
TET3 expression (TET3 and CD163 [2]): increased TET3 expression; also recorded: increased TET3 mRNA
TET3 expression (TET3 and CD163 [2]; listed as TGF-b1): increased TET3 expression both at mRNA and protein levels
number of TET3/CD163 double-positive cells (TET3 and CD163 [2]): increased TET3 expression and the number of TET3/CD163 double-positive cells; also recorded: increase in the number of TET3/CD163 double-positive cells
number of TET3/CD163 double-positive cells (TET3 and CD163 [2]; listed as TGF-b1): increase in the number of TET3/CD163 double-positive cells

CCCCN(C)C(=O)CCCCCCCCCC[C@@H]1Cc2cc(O)ccc2[C@H]2CC[C@]3(C)[C@@H](O)CC[C@H]3[C@H]12 [ICI 164,384]
estrogen receptor degradation (estrogen receptor): induces its degradation without affecting its mRNA expression

canakinumab: a human monoclonal antibody specific for IL-1β
incident NSCLC and lung cancer mortality (IL-1β): substantially reduced incident NSCLC and lung cancer mortality in a dose-dependent manner

tocilizumab: an anti-IL-6 receptor monoclonal antibody
endometriosis burden (IL-6 receptor): significantly reduced endometriosis burden

MCP1: MCP1, also known as CCL2
TET3 expression and TET3/CD163 double-positive cells (TET3 and CD163 [1]): increase TET3 expression and TET3/CD163 double-positive cells
TET3 expression (TET3 and CD163 [2]): resulted in similar effects
